Experimental data: ChEMBL document CHEMBL2074215, “The effects of pluronics block copolymers and Cremophor EL on intestinal lipoprotein processing and the potential link with P-glycoprotein in Caco-2 cells” (Pharm Res, 2003)

Target: ATP-dependent translocase ABCB1 (Homo sapiens, UniProt P08183)
Assay: TP_TRANSPORTER: transepithelial transport of cyclosporin A in Caco-2 cells
Type: functional, cell-based

Chain of ATP-dependent translocase ABCB1 (P08183 whole entry): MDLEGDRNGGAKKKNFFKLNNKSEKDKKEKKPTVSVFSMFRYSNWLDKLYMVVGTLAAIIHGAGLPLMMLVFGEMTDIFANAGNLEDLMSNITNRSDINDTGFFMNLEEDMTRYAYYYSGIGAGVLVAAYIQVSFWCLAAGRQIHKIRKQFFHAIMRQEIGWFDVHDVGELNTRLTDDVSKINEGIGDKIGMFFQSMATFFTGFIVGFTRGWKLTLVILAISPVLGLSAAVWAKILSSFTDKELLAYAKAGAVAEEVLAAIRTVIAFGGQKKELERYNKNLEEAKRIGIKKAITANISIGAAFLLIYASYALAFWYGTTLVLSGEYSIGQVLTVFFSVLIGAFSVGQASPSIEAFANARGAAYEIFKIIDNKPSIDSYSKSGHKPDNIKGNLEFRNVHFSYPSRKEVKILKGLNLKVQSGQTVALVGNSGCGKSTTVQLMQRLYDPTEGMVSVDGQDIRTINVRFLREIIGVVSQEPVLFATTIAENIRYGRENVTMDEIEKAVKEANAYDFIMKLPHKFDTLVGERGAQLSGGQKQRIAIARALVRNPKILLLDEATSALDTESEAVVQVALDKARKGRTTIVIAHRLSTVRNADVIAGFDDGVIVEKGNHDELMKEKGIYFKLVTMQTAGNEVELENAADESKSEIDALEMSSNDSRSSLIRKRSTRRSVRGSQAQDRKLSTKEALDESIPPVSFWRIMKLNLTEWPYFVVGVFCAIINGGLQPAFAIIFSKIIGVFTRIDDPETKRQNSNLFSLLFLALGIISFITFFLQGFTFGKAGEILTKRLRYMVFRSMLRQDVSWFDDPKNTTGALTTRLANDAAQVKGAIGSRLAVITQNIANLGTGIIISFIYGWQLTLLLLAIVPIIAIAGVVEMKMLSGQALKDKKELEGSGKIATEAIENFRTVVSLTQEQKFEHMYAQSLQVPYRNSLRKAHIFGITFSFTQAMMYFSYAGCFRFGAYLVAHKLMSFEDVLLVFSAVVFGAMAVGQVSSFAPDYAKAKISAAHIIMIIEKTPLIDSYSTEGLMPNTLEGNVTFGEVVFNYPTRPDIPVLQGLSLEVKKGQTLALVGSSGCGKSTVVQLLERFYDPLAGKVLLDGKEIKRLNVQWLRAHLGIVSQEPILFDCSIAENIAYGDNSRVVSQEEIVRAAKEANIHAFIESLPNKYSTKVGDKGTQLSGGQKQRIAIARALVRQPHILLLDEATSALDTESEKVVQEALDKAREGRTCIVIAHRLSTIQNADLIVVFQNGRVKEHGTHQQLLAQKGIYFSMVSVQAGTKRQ

Sequence	Activity
CREMOPHOR EL	inhibitor [+]
PLURONIC L81	inhibitor [+]
